Here are results for 15 molecules from patent publication US11542259B2, “Compounds for the treatment of kinase-dependent disorders” (Exelixis, Inc., priority 2018, dated 2023).

Assay type in all cases: cell-based
The target of one assay is KDR (Homo sapiens (Human), UniProt P35968). Description: KDR autophosphorylation ELISA in HUVEC cells. The following applies: cellular, VEGF165 stimulated. As for the experimental part:
Human umbilical vein endothelial cells or HUVEC (Lonza #C2519A) were seeded at 2×10^4 cells/well onto 96-well plates (Corning #3904), in EGM-2 growth medium (Lonza #CC-3162) containing 1% Penicillin Streptomycin (Thermo Fisher #15140-122). HUVEC cells were incubated at 37° C., 5% CO2 for 24 h and then starved for 24 h in serum-free EBM-2 basal medium (Lonza #CC-3156) containing 1% Penicillin Streptomycin. Test compounds were serially diluted to produce an 8-point dose curve in fresh serum-free medium to a final concentration of 0.3% DMSO (vehicle) and added to the cells and incubated for 1 h. Cells were then stimulated with 100 ng/mL recombinant human VEGF165 (R&D Systems #293-VE-500) for 5 min, washed with cold PBS, and immediately lysed with 130 μL of cold 1× lysis buffer [20 mM Tris, 137 mM sodium chloride, 2 mM EDTA, 10% glycerol, 1% NP-40 alternative, 1 mM activated sodium orthovanadate, 1 mM PefaBloc SC (Sigma-Aldrich #11429868001), protease/phosphatase inhibitor tablet (Thermo Fisher #A32959)]. Lysates were collected and 100 μL/well added into the human phospho-KDR DuoSet IC ELISA (R&D Systems #DYC1766-2). Assay was performed according to manufacturer's instructions and sample phospho-KDR concentrations were extrapolated using human phospho-KDR control (R&D Systems #841421) as a standard. Positive control wells (100% activity) contained VEGF165-stimulated, DMSO-treated cell lysates. Negative control wells (0% activity) contained non-stimulated cell lysates. IC50 values were calculated by nonlinear regression analysis using a 4-parameter logistic curve fit in ActivityBase XE (IDBS).

Another assay concerns the target Met (Homo sapiens (Human), UniProt P08581). Description: Met autophosphorylation ELISA in PC-3 cells. Conditions: cellular, HGF stimulated, read-out: c-Met IC50. As for the experimental part:
PC-3 prostate cancer cells (ATCC #CRL-1435) were seeded at 4×10^4 cells/well onto 24-well plates (Greiner #662165), in DMEM (Thermo Fisher #11995-040) containing 10% FBS (Thermo Fisher #26140-079), 1% MEM NEAA (Thermo Fisher #11140-050), 1% GlutaMax (Thermo Fisher #35050-061), and 1% Penicillin Streptomycin (Thermo Fisher #15140-122). PC-3 cells were incubated at 37° C., 5% CO2 for 24 h and then starved for 3 h in serum-free medium. Test compounds were serially diluted to produce an 8-point dose curve in fresh serum-free medium to a final concentration of 0.3% DMSO (vehicle) and added to the cells and incubated for 1 h. Cells were then stimulated with 100 ng/mL recombinant human HGF (R&D Systems #294-HG-250) for 10 min, washed with cold PBS and immediately lysed with 130 μL of cold 1× lysis buffer [20 mM Tris, 137 mM sodium chloride, 2 mM EDTA, 10% glycerol, 1% NP-40 alternative, 1 mM activated sodium orthovanadate, 1 mM PefaBloc SC (Sigma-Aldrich #11429868001), protease/phosphatase inhibitor tablet (Thermo Fisher #A32959)]. Lysates were clarified by centrifugation and 100 μL/well added into the PathScan phospho-Met (panTyr) Sandwich ELISA (Cell Signaling Technology #7333). Assay was performed according to manufacturer's instructions. Positive control wells (100% activity) contained HGF-stimulated, DMSO-treated cell lysates. Negative control wells (0% activity) contained HGF-stimulated, reference inhibitor-treated cell lysates. IC50 values were calculated by nonlinear regression analysis using a 4-parameter logistic curve fit in ActivityBase XE (IDBS).
In general terms: An ELISA detects its analyte on a solid surface through an enzyme-linked reagent.

The target of another assay is AXL (Homo sapiens (Human), UniProt P30530). Description: AXL autophosphorylation ELISA in A-172 cells. The following applies: cellular, Gas6 stimulated. As for the experimental part:
A-172 glioblastoma cells (ATCC #CRL-1620) were seeded at 2.5×10^5 cells/well onto 24-well plates (Greiner #662165), in DMEM (Thermo Fisher #11995-040) containing 10% FBS (Thermo Fisher #26140-079), 1% MEM NEAA (Thermo Fisher #11140-050), 1% GlutaMax (Thermo Fisher #35050-061) and 1% Penicillin Streptomycin (Thermo Fisher #15140-122). A-172 cells were incubated at 37° C., 5% CO2 for 24 h and then starved for 24 h in serum-free medium. Test compounds were serially diluted to produce an 8-point dose curve in fresh serum-free medium to a final concentration of 0.3% DMSO (vehicle) and added to the cells and incubated for 1 h. Cells were then stimulated with 1 μg/mL recombinant human Gas6 (R&D Systems #885-GSB-500) for 15 min, washed with cold PBS and immediately lysed with 150 μL of cold 1× lysis buffer [20 mM Tris, 137 mM sodium chloride, 2 mM EDTA, 10% glycerol, 1% NP-40 alternative, 1 mM activated sodium orthovanadate, 1 mM PefaBloc SC (Sigma-Aldrich #11429868001), protease/phosphatase inhibitor tablet (Thermo Fisher #A32959)]. Lysates were collected and 100 μL/well added into the human phospho-AXL DuoSet IC ELISA (R&D Systems #DYC2228-2). Assay was performed according to manufacturer's instructions and sample phospho-AXL concentrations were extrapolated using human phospho-AXL control (R&D Systems #841645) as a standard. Positive control wells (100% activity) contained Gash-stimulated, DMSO-treated cell lysates. Negative control wells (0% activity) contained Gash-stimulated, reference inhibitor-treated cell lysates. IC50 values were calculated by nonlinear regression analysis using a 4-parameter logistic curve fit in ActivityBase XE (IDBS).

In general, IC50 refers to the concentration that gives 50% inhibition.

Sequence of AXL (P30530 26-894): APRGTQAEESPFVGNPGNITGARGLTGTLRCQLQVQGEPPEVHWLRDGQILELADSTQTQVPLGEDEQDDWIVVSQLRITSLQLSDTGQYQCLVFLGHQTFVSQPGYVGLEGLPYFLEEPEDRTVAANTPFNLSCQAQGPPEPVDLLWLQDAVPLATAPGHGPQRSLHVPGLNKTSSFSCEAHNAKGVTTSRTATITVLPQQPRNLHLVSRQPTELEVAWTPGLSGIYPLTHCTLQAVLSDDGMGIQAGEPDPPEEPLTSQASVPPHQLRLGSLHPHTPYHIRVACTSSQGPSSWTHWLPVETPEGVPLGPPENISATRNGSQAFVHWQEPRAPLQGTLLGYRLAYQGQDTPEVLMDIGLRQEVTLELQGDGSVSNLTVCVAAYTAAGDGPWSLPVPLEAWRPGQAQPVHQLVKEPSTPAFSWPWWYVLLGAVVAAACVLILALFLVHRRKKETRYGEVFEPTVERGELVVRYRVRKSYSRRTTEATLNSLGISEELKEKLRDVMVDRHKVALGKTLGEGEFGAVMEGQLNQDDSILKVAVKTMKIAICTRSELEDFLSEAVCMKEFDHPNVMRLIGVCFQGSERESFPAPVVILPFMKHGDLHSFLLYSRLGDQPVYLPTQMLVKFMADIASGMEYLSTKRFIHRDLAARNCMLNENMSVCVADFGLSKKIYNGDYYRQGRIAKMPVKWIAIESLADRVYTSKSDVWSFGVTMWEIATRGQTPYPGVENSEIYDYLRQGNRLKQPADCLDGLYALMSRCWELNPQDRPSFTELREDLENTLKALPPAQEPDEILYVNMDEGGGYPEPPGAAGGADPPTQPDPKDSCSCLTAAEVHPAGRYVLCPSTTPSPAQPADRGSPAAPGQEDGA
Sequence of Met (P08581 25-1390): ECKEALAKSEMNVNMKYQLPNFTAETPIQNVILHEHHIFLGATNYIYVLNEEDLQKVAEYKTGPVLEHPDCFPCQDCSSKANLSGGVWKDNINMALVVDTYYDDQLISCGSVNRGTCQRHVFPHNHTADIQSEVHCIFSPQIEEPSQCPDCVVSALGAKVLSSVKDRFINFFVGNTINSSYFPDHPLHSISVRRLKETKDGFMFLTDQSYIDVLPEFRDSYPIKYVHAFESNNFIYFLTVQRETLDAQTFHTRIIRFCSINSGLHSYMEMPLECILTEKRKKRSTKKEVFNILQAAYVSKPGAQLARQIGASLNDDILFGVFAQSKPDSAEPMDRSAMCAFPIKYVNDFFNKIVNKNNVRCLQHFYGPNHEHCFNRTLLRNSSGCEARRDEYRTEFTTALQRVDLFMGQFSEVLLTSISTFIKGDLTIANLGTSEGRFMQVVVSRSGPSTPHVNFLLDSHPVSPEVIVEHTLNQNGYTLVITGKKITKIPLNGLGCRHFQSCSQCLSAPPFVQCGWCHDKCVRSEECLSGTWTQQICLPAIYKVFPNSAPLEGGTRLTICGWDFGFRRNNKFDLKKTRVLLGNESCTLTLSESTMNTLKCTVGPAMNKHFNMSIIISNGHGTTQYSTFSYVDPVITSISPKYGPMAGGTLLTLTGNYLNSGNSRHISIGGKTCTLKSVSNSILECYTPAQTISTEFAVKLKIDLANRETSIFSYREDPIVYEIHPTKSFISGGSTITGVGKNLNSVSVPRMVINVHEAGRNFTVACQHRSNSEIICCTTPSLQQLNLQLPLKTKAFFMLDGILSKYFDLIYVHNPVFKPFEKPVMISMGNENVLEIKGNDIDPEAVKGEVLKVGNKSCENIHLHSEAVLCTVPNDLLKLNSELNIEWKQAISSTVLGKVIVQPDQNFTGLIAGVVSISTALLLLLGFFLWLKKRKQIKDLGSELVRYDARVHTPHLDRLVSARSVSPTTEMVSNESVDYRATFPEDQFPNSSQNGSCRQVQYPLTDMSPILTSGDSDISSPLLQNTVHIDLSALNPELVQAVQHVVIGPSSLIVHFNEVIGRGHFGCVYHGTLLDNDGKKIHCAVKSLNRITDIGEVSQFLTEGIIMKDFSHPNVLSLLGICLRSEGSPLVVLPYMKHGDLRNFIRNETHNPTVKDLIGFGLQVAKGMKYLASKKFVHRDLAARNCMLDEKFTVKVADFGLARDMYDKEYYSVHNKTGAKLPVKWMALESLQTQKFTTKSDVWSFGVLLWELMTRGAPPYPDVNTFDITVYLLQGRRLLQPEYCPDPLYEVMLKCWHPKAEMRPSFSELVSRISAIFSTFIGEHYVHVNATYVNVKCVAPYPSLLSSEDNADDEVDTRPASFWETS
Sequence of KDR (P35968 20-1356): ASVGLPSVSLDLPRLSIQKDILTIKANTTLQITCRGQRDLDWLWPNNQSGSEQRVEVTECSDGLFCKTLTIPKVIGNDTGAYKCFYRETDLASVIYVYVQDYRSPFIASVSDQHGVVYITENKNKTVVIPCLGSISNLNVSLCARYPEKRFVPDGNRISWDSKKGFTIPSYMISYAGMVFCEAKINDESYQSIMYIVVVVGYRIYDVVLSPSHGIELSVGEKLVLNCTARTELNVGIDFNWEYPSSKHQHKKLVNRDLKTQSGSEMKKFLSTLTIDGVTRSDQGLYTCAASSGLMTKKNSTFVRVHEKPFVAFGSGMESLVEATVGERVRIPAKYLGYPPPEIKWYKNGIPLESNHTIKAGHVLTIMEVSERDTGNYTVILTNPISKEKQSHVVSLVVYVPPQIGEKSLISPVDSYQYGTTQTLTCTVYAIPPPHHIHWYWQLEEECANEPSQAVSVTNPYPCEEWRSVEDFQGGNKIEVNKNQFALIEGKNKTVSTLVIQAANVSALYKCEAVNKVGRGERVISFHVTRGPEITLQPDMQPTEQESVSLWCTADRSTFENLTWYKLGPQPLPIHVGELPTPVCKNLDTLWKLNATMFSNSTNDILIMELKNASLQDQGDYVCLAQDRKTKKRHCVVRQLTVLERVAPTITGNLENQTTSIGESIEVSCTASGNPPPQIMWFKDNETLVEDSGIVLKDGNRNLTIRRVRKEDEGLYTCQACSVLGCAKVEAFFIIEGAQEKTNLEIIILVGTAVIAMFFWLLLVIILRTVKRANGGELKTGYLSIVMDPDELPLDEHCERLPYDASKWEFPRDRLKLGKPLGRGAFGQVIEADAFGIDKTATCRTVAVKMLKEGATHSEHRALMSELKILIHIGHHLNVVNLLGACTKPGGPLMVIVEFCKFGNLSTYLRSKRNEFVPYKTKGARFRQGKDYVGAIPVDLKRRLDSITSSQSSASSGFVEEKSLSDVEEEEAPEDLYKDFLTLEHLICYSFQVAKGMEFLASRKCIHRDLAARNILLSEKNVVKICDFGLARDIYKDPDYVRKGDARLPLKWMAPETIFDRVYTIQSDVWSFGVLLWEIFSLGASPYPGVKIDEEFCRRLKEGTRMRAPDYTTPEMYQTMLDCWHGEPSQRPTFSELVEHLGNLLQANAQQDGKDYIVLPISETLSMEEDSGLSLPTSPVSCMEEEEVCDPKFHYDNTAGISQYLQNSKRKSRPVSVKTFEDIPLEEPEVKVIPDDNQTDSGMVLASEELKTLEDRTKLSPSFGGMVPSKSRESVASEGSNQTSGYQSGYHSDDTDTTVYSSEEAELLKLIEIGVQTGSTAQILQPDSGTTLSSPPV

In the case of `Nc1cc2nccc(Oc3ccc(NC(=O)C4(C(=O)Nc5ccc(F)cc5)CC4)cc3)c2cc1C(=O)O` [Compound 89, 7-Amino-4-[4-[[1-[(4-fluorophenyl)carbamoyl]cyclopropane-carbonyl]amino]phenoxy]quinoline-6-carboxylic Acid], the IC50 at KDR, at Met and against AXL was > 300 nM throughout.

With `CNC(=O)c1cc2c(Oc3ccc(NC(=O)C4(C(=O)N(C)c5ccc(F)cc5)CC4)cc3F)ccnc2cc1OC` [Compound 262, 1-N-[3-Fluoro-4-[7-methoxy-6-(methylcarbamoyl)quinolin-4-yl]oxyphenyl]-1-N′-(4-fluorophenyl)-1-N′-methylcyclopropane-1,1-dicarboxamide], the IC50 against KDR, at Met and on AXL was > 300 nM throughout.

Turning to `NS(=O)(=O)c1ccc2nccc(Oc3ccc(NC(=O)C4(C(=O)Nc5ccc(F)cc5)CC4)cc3)c2c1` [Compound 209, 1-N′-(4-Fluorophenyl)-1-N-[4-(6-sulfamoylquinolin-4-yl)oxyphenyl]cyclopropane-1,1-dicarboxamide], the IC50 against KDR is 10 to 100 nM; at Met, 100 to 300 nM; at AXL, 100 to 300 nM.

Consider `NS(=O)(=O)c1ccc2c(Oc3ccc(NC(=O)C4(C(=O)Nc5ccc(F)cc5)CC4)cc3)ccnc2c1` [Compound 254, 1-N′-(4-Fluorophenyl)-1-N-[4-(7-sulfamoylquinolin-4-yl)oxyphenyl]cyclopropane-1,1-dicarboxamide], for which the IC50 on KDR was > 300 nM; at Met, 100 to 300 nM; on AXL it was 100 to 300 nM.

Consider `CC(=O)c1ccc2c(Oc3ccc(NC(=O)C4(C(=O)Nc5ccc(F)cc5)CC4)cc3)ccnc2c1` [Compound 255, 1-N-[4-(7-Acetylquinolin-4-yl)oxyphenyl]-1-N′-(4-fluorophenyl)cyclopropane-1,1-dicarboxamide], for which the IC50 at KDR was > 300 nM; at Met, 100 to 300 nM; against AXL, > 300 nM.

`CO/N=C(\C)c1ccc2c(Oc3ccc(NC(=O)C4(C(=O)Nc5ccc(F)cc5)CC4)cc3)ccnc2c1` [Compound 256, 1-N′-(4-Fluorophenyl)-1-N-[4-[7-[(E)-N-methoxy-C-methylcarbonimidoyl]quinolin-4-yl]oxyphenyl]cyclopropane-1,1-dicarboxamide]: the IC50 on KDR, at Met and against AXL was 100 to 300 nM each time.

Take `CO/N=C(/C)c1cc2c(Oc3ccc(NC(=O)C4(C(=O)Nc5ccc(F)cc5)CC4)cc3)ccnc2cc1OC` [Compound 36, 1-N′-(4-fluorophenyl)-1-N-[4-[7-methoxy-6-[(Z)-N-methoxy-C-methylcarbonimidoyl]quinolin-4-yl]oxyphenyl]cyclopropane-1,1-dicarboxamide]: the IC50 against KDR is > 300 nM; at Met, 100 to 300 nM; against AXL, 100 to 300 nM.

In the case of `CO/N=C/c1cc2c(Oc3ccc(NC(=O)C4(C(=O)Nc5ccc(F)cc5)CC4)cc3)ccnc2cc1OC` [Compound 193, 1-N′-(4-Fluorophenyl)-1-N-[4-[7-methoxy-6-[(E)-methoxyiminomethyl]quinolin-4-yl]oxyphenyl]cyclopropane-1,1-dicarboxamide], the IC50 at KDR fell in the range of 100 to 300 nM; on Met, 100 to 300 nM; against AXL, 10 to 100 nM.

Take `CNc1cc2nccc(Oc3ccc(NC(=O)C4(C(=O)Nc5ccc(F)cc5)CC4)cc3)c2cc1C(N)=O` [Compound 82, 1-N-[4-[6-Carbamoyl-7-(methylamino)quinolin-4-yl]oxyphenyl]-1-N′-(4-fluorophenyl)cyclopropane-1,1-dicarboxamide]: the IC50 at KDR, at Met and on AXL was 10 to 100 nM throughout.

In the case of `CO/N=C(\C)c1cc2c(Oc3ccc(NC(=O)C4(C(=O)Nc5ccc(F)cc5)CC4)cc3)ccnc2cc1OC` [Compound 35, 1-N′-(4-fluorophenyl)-1-N-[4-[7-methoxy-6-[(E)-N-methoxy-C-methylcarbonimidoyl]quinolin-4-yl]oxyphenyl]cyclopropane-1,1-dicarboxamide], the IC50 against KDR, at Met and at AXL was 100 to 300 nM in each case.

Regarding `CC1NC(=O)c2cc3c(Oc4ccc(NC(=O)C5(C(=O)Nc6ccc(F)cc6)CC5)cc4)ccnc3cc2O1` (stereo not drawn) [Compound 92, 1-N′-(4-Fluorophenyl)-1-N-[4-[(2-methyl-4-oxo-2,3-dihydropyrido[3,2-g][1,3]benzoxazin-6-yl)oxy]phenyl]cyclopropane-1,1-dicarboxamide], the IC50 is 100 to 300 nM on KDR, 100 to 300 nM at Met and 10 to 100 nM against AXL.

Consider `O=C(NOC[C@@H](O)CO)c1ccc2c(Oc3ccc(NC(=O)C4(C(=O)Nc5ccc(F)cc5)CC4)cc3)ccnc2c1` [Compound 170, 1-N-[4-[7-[[(2S)-2,3-Dihydroxypropoxy]carbamoyl]quinolin-4-yl]oxyphenyl]-1-N′-(4-fluorophenyl)cyclopropane-1,1-dicarboxamide], for which the IC50 was 100 to 300 nM against KDR, > 300 nM at Met and 100 to 300 nM at AXL.

Regarding `COCCNc1cc2nccc(Oc3ccc(NC(=O)C4(C(=O)Nc5ccc(F)cc5)CC4)cc3)c2cc1C(N)=O` [Compound 70, 1-N-[4-[6-Carbamoyl-7-(2-methoxyethylamino)quinolin-4-yl]oxyphenyl]-1-N′-(4-fluorophenyl)cyclopropane-1,1-dicarboxamide], the IC50 at KDR, at Met and at AXL was 10 to 100 nM each time.

As for `CNC(=O)c1cc2c(Oc3ccc(NC(=O)C4(C(=O)Nc5ccc(F)cc5)CC4)cc3)ccnc2cc1NC` [Compound 83, 1-N′-(4-Fluorophenyl)-1-N-[4-[7-(methylamino)-6-(methylcarbamoyl)quinolin-4-yl]oxyphenyl]cyclopropane-1,1-dicarboxamide], the IC50 on KDR, on Met and against AXL was 10 to 100 nM throughout.

Take `NC(=O)c1cc2c(Oc3ccc(NC(=O)C4(C(=O)Nc5ccc(F)cc5)CC4)cc3)ccnc2cc1N` [Compound 87, 1-N-[4-(7-Amino-6-carbamoylquinolin-4-yl)oxyphenyl]-1-N′-(4-fluorophenyl)cyclopropane-1,1-dicarboxamide]: the values for the IC50 on KDR, on Met and at AXL were > 300 nM, 100 to 300 nM and 100 to 300 nM, respectively.
